In article PMC9829398 (Plant Biotechnology Journal, 2022):

Key:
tobacco roots = assay: RNA-seq of tobacco roots (DEGs, GO and KEGG classification and enrichment); assay type: in vivo
FER‐CD = FER‐CD (Arabidopsis thaliana, UniProt Q9SCZ4); assay: biochemical
[1] = system: FER cytoplasmic domain (FER‐CD); assay: FER-CD kinase activity (autophosphorylation), high-throughput screening, Kinase-Lumi luminescent ATP consumption; assay type: biochemical, Arabidopsis thaliana; details: in vitro autophosphorylation
ANJEA‐CD = assay: ANJEA-CD kinase activity (autophosphorylation); assay type: biochemical, Arabidopsis thaliana; details: 5 μM
tobacco = assay: Growth of tobacco (shoot and root fresh weight, Day 25); details: 5 μM irrigated twice
Aurora A = details: read-out: IC50 for Aurora A; ref D'Alise et al., [2008]; cited from earlier work
[2] = KEGG ko00980 Metabolism of xenobiotics by cytochrome P450
[3] = KEGG ko00982 Drug metabolism - cytochrome P450
[4] = KEGG ko01040 Biosynthesis of unsaturated fatty acids
[5] = KEGG ko03320 PPAR signaling pathway
[6] = KEGG ko04010 MAPK signaling pathway
[7] = KEGG ko04011 MAPK signaling pathway - yeast
[8] = KEGG ko04020 Calcium signaling pathway
[9] = KEGG ko04022 cGMP-PKG signaling pathway
[10] = KEGG ko04075 Plant hormone signal transduction
[11] = KEGG ko04140 Regulation of autophagy
[12] = KEGG ko04211 Longevity regulating pathway
[13] = KEGG ko04212 Longevity regulating pathway - worm
[14] = KEGG ko04370 VEGF signaling pathway
[15] = KEGG ko04380 Osteoclast differentiation
[16] = KEGG ko04614 Renin-angiotensin system
[17] = KEGG ko04626 Plant-pathogen interaction
[18] = KEGG ko04650 Natural killer cell mediated cytotoxicity
[19] = KEGG ko04660 T cell receptor signaling pathway
[20] = KEGG ko04662 B cell receptor signaling pathway
[21] = KEGG ko04712 Circadian rhythm - plant
[22] = KEGG ko04720 Long-term potentiation
[23] = KEGG ko04723 Retrograde endocannabinoid signaling
[24] = KEGG ko04724 Glutamatergic synapse
[25] = KEGG ko04810 Regulation of actin cytoskeleton
[26] = KEGG ko04920 Adipocytokine signaling pathway
[27] = KEGG ko04921 Oxytocin signaling pathway
[28] = KEGG ko04922 Glucagon signaling pathway
[29] = KEGG ko04974 Protein digestion and absorption
[30] = KEGG ko04975 Fat digestion and absorption
[31] = tobacco roots, 5 μM irrigated twice, coregulated genes, vs DMSO

Chain of FER‐CD (Q9SCZ4 469-895): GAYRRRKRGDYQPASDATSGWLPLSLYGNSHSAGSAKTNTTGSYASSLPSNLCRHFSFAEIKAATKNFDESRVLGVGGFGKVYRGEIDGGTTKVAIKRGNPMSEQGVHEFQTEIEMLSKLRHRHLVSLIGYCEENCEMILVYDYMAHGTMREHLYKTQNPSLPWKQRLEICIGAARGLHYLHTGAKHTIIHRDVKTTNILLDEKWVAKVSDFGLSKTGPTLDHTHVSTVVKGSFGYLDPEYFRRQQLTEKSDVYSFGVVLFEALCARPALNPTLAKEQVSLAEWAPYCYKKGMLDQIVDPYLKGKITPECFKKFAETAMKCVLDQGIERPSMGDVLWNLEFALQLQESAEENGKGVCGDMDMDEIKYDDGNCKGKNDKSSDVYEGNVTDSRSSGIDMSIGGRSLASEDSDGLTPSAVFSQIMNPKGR

## c1nc2nc(Nc3ccc(N4CCOCC4)cc3)nc(NC3CCCCC3)c2[nH]1 [Reversine]
Tobacco roots; KEGG ko00960 Tropane, piperidine and pyridine alkaloid biosynthesis
  ListHits: 2
Tobacco roots; [2]
  Enrichment_score: 1.323
  ListHits: 3
Tobacco roots; [3]
  Enrichment_score: 1.679
Tobacco roots; [4]
  Enrichment_score: 1.369
  ListHits: 2
Tobacco roots; KEGG ko02010 ABC transporters
  Enrichment_score: 2.788
  ListHits: 3
Tobacco roots; [5]
  Enrichment_score: 1.1072
  ListHits: 1
Tobacco roots; [6]
  Enrichment_score: 0.9727
  ListHits: 2
Tobacco roots; [7]
  Enrichment_score: 1.665
Tobacco roots; [8]
  Enrichment_score: 0.9376
  ListHits: 2
Tobacco roots; [9]
  Enrichment_score: 0.7381
  ListHits: 2
Tobacco roots; [10]
  Enrichment_score: 1.411
  ListHits: 18
Tobacco roots; [11]
  Enrichment_score: 0.6505
  ListHits: 1
Tobacco roots; KEGG ko04146 Peroxisome
  Enrichment_score: 1.786
  ListHits: 7
Tobacco roots; [12]
  Enrichment_score: 1.229
  ListHits: 3
Tobacco roots; [13]
  Enrichment_score: 1.436
Tobacco roots; KEGG ko04360 Axon guidance
  Enrichment_score: 1.183
  ListHits: 2
Tobacco roots; [14]
  Enrichment_score: 1.8259
  ListHits: 2
Tobacco roots; [15]
  Enrichment_score: 1.8259
  ListHits: 2
Tobacco roots; [16]
  Enrichment_score: 7.434
  ListHits: 2
Tobacco roots; [17]
  Enrichment_score: 1.449
  ListHits: 12
Tobacco roots; [18]
  Enrichment_score: 1.9637
  ListHits: 2
Tobacco roots; [19]
  Enrichment_score: 2.365
  ListHits: 2
Tobacco roots; [20]
  Enrichment_score: 1.794
  ListHits: 2
Tobacco roots; [21]
  Enrichment_score: 1.03
  ListHits: 2
Tobacco roots; [22]
  Enrichment_score: 1.352
  ListHits: 2
Tobacco roots; [23]
  Enrichment_score: 1.239
  ListHits: 1
Tobacco roots; [24]
  Enrichment_score: 2.42
Tobacco roots; KEGG ko04727 GABAergic synapse
  Enrichment_score: 1.466
  ListHits: 2
Tobacco roots; [25]
  Enrichment_score: 1.14
  ListHits: 3
Tobacco roots; [26]
  Enrichment_score: 2.775
Tobacco roots; [27]
  Enrichment_score: 0.8531
  ListHits: 2
Tobacco roots; [28]
  Enrichment_score: 0.5913
  ListHits: 2
Tobacco roots; KEGG ko04924 Renin secretion
  Enrichment_score: 1.859
  ListHits: 2
Tobacco roots; [29]
  Enrichment_score: 6.938
  ListHits: 2
Tobacco roots; [30]
  Enrichment_score: 4.337
  ListHits: 1
Tobacco roots; KEGG ko04976 Bile secretion
  Enrichment_score: 2.838
  ListHits: 3
Tobacco roots; RNA-seq, GO growth, vs DMSO
  Expression levels of growth-related genes in tobacco roots: differentially elevated the expression levels of most growth‐related genes
Tobacco roots; RNA-seq, vs DMSO
  Expression levels of RBOHs, MYB44, TGA2, WRKY19, EFR, FLS2, PR1 and PDF1.4 in tobacco roots: significantly increased the expression levels
Tobacco roots; [31]
  Antioxidant genes (GO antioxidant activity) up-regulated: 60 of 61
  Immune genes (GO immune system process) up-regulated: 70 of 82
Tobacco roots; tobacco roots, coregulated genes, vs DMSO
  Environmental adaptation-related genes (KEGG) up-regulated: 22 of 29
FER‐CD
  Kd: 1770 nM
[1]
  Effect on FER kinase activity: inhibited the kinase activity of FER
ANJEA‐CD
  Inhibition rate of ANJEA-CD kinase activity: lower than 55%
tobacco
  Growth (biomass) of tobacco shoots and roots: did not observably affect the biomass
Aurora A
  IC50: […]
